Assay results reported in patent US20200352912A1, “ANTIMICROBIAL COMPOSITIONS AND METHODS OF USING THE SAME” (The Board Of Supervisors Of Louisiana State University And …, priority 2018, published 2020).

Legend:
[1] = administration of L-161,982 alone to control animals; format: in vivo, mice
From the text: Furthermore, L-161, 982 protected mice against the synergistic lethality induced by co-infection with C. albicans and S. aureus. […] The goal of these studies was to further investigate the antimicrobial mechanism of action (MOA) of L-161, 982, testing mechanisms associated with major classes of antimicrobials.

[2] = test system: S. aureus mono-species biofilm; experiment: biofilm formation on polystyrene (XTT, CFU); format: cell-based, Staphylococcus aureus
Description: The effect of L-161,982 on biofilm formation was tested. Mono- and dual-species C. albicans and/or S. aureus biofilms were grown on 96-well plates for 24 h with the indicated concentration of L-161, 982. After incubation, metabolic activity of biofilms was quantified by the XTT assay (A) and then biofilms were disrupted to determine live colony forming units (CFU) (B). The results are cumulative of three independent experiments with duplicate samples. Statistics was performed using One-way ANOVA with the Tukey post-hoc test for the XTT assay. The Mann-Whitney U test was used to analyze CFU data. Significance is indicated as follows: ns—not significant, *P<0.05; *** P<0.001. Error bars represent standard deviation.
Following growth as described above, microbes were washed in phosphate-buffered saline (PBS) by centrifugation, counted on a hemocytometer, and adjusted to 2×10^7 CFU/ml in RPMI buffered with MOPS (165 mM). For monomicrobial biofilms, 50 μl of adjusted C. albicans or S. aureus culture was added to each well of a sterile 96-well cell culture polystyrene microtiter plate (1×10^6 CFU per well); to this, 50 μl of sterile RPMI+MOPS was added. For polymicrobial biofilms, 50 μl of each organism was added per well (1×10^6 CFU of each organism per well). Plates were incubated for 24 h at 37° C. to induce biofilm formation. Following confirmation of mature biofilm growth by macro- and microscopic examination, plates were washed once with 200 μl sterile saline and then 200 μl RPMI+MOPS containing L-161, 982 at various concentrations (6.25-200 μg/ml) added to each well. L-161, 982-free RPMI+MOPS was added to wells with and without microbes to serve as positive and negative controls, respectively. […]
(§1) The XTT reduction assay was used to determine the metabolic activity of biofilms following treatment with L-161, 982 (17). Briefly, wells were washed once in PBS, and plates incubated at 37° C. for 2 h with 200 μl XTT working reagent (0.5 mg/ml XTT and 1 μM Menadione) and the resulting absorbance measured at 490 nm on a microplate spectrophotometer. […]

[3] = test system: C. albicans and S. aureus; experiment: mouse C. albicans-S. aureus polymicrobial intra-abdominal infection; format: in vivo, mice; settings: 10 mg/kg
Description: Effect of inhibition of EP4 receptor signaling on survival. Mice received either vehicle or EP4 receptor antagonist at a dose of 10 mg/kg by i.p. injection as indicated in Materials and Methods. Mortality was assessed using Kaplan Meier test (***P<0.001; n=20/group) compared to control groups. Data shown are representative of three replicate experiments.
The mouse peritonitis/intra-abdominal model was performed as previously described (8). In brief, for MRSA peritonitis, mice were injected intraperitoneally (i.p.) with 4×10^6 CFU or 5×10^6 CFU or 2×10^7 CFU of S. aureus in 0.2 ml of PBS containing 3% hog gastric mucin type III (Sigma Aldrich). Mice injected i.p. with 0.2 ml of mucin/PBS served as a negative infection control. For the intra-abdominal infection with C. albicans and S. aureus, mice were injected i.p. with 7×10^6 CFU of C. albicans and 8×10^7 CFU of S. aureus (8.7×10^7 CFU total) in 0.2 ml of PBS. After inoculation, mice were observed over 10 days for signs of morbidity (hunched posture, inactivity, lethargy, and ruffled fur) and mortality. […] In the MRSA peritonitis experiments, mice were sacrificed at 24 or 48 h post-inoculation to assess microbial burden. Peritoneal cavities were lavaged by injection of 2 ml of sterile PBS followed by gentle massaging of the peritoneal cavity. Peritoneal lavage fluid then was removed using a pipette inserted into a small incision in the abdominal cavity. Spleens were removed, weighed, and mechanically homogenized prior to CFU analysis. Microbial burdens in the peritoneal lavage fluid and spleen were enumerated as described above.
Each inhibitor was prepared fresh as a concentrated stock (20-25 mg/ml) in DMSO and diluted to a working concentration of […] in sterile PBS (final DMSO concentration, 2.3%). A sham treatment containing only 2.3% DMSO in PBS was also prepared. For the MRSA peritonitis study, the EP4 receptor antagonist was administered 2 h after S. aureus inoculation and once daily thereafter until day 4 post inoculation. For the IAI co-infection study, COX inhibitor or vehicle control was administered 4 h prior to and 4 and 8 h after inoculation with C. albicans and S. aureus while the EP receptor antagonists were administered daily starting 1 day prior to and 5 days after infection. All other procedures were performed as described above. Control groups received the vehicle at the same dose interval.
In a final set of experiments, we evaluated the ability of L-161, 982 to reduce lethality in co-infected mice. Mice co-inoculated with the standard 7×106 C. albicans CFU and 8×107 S. aureus CFU (8.7×10^7 CFU total) were treated with L-161, 982 (10 mg/kg) 2 h post infection and once daily afterwards until day 5. […]

[4] = test system: pre-formed dual-species biofilm; experiment: pre-formed mature biofilm (XTT, CFU); format: cell-based, C. albicans and S. aureus; settings: 100 and 200 μg/ml
Description: The effect of L-161, 982 on pre-formed mature biofilms was tested. Mono- and dual-species C. albicans and/or S. aureus biofilms were grown on 96-well plates for 24 h before being treated with the indicated concentration of L-161, 982 for a further 24 h. After treatment, metabolic activity of biofilms was quantified by the XTT assay (A) and then biofilms were disrupted to determine live colony forming units (CFU) (B). The results are cumulative of three independent experiments with duplicate samples. Statistics were performed using One-way ANOVA with the Tukey post-hoc test for the XTT assay. The Mann-Whitney U test was used to analyze CFU data. Significance is indicated as follows: ns—not significant, *P<0.05; *** P<0.001. Error bars represent standard deviation.
Following growth as described above, microbes were washed in phosphate-buffered saline (PBS) by centrifugation, counted on a hemocytometer, and adjusted to 2×10^7 CFU/ml in RPMI buffered with MOPS (165 mM). […]
as §1

CCCCc1nn(-c2ccccc2C(F)(F)F)c(=O)n1Cc1ccc(-c2ccccc2S(=O)(=O)NC(=O)c2sccc2C)cc1 [L-161, 982, N-[[4′-[[3-Butyl-1,5-dihydro-5-oxo-1-[2-(trifluoromethyl)phenyl]-4H-1,2,4-triazol-4-yl]methyl][1,1′-biphenyl]-2-yl]sulfonyl]-3-methyl-2-thiophenecarboxamide]
morbidity or mortality in control animals [1]: no morbidity or mortality
overt signs of toxicity [1]: did not cause any overt signs of toxicity
CFUs of S. aureus, biofilm formation ([2]; 6.25 to 25 μg/ml): significantly reduced
metabolic activity (XTT) during biofilm formation ([2]; all concentrations tested, 24 h): significantly inhibited
CFUs of S. aureus, biofilm formation ([2]; concentrations >50 μg/ml): no viable cells were recovered
survival enhanced by [3]: 40%
survival ([3]; vehicle control 10): 50%
S. aureus CFUs recovered from pre-formed dual-species biofilm [4]: no CFUs were recovered
